According to ChEMBL document CHEMBL5370528, “Synthesis-accessibility-oriented design of c-Jun N-terminal kinase 1 inhibitor” (Eur J Med Chem, 2023):
Calls of active or inactive are those of the source. The calls are words filed in the database; no cut-off is given here.

How the values were obtained:
[1] = Apparent volume of distribution in Sprague-Dawley rat at 75 mg/kg, po by HPLC-UV analysis; format: ADME, organism-based; settings: in vivo
[2] = test system: Mus musculus; assay: Anti-fibrotic activity in bleomycin-induced C57BL/6 mouse model of pulmonary fibrosis assessed as increase in respiratory function by measuring expiratory volume at 25 to 75 mg/kg, po administered twice a day for 3 weeks by spirometry analysis; format: functional, organism-based; settings: dose 25-75 mg/kg
[3] = test system: Mus musculus; assay: Anti-fibrotic activity in bleomycin-induced C57BL/6 mouse model of pulmonary fibrosis assessed as restoration of respiratory function at 75 mg/kg, po administered twice a day for 3 weeks by spirometry analysis; format: functional
[4] = organism: Homo sapiens; assay: Selectivity ratio of IC50 for inhibition of N-terminal GST-tagged recombinant full length human JNK2 expressed in baculovirus infected Sf9 cells to IC50 for inhibition of N-terminal GST-tagged recombinant full length human JNK1 expressed in baculovirus infected Sf9 insect cells
[5] = biological target: Mitogen-activated protein kinase 7 (Homo sapiens) (UniProt Q13164); assay: Inhibition of ERK5 (unknown origin) at 1 uM preincubated for 10 mins followed by substrate addition and measured after 60 mins in the presence of ATP by ADP-Glo reagent based luminescence assay relative to control; settings: time 70.0 min
[6] = biological target: T1, Mitogen-activated protein kinase 9 (Homo sapiens, UniProt P45984); assay: Inhibition of N-terminal GST-tagged recombinant full length human JNK2 expressed in baculovirus infected Sf9 cells using IPTTPITTTYFFFKKK as substrate at 1 uM incubated for 60 mins in the presence of ATP by ADP-Glo reagent based luminescence assay relative to control
Target sequence in this assay (P45984 whole entry, looked up): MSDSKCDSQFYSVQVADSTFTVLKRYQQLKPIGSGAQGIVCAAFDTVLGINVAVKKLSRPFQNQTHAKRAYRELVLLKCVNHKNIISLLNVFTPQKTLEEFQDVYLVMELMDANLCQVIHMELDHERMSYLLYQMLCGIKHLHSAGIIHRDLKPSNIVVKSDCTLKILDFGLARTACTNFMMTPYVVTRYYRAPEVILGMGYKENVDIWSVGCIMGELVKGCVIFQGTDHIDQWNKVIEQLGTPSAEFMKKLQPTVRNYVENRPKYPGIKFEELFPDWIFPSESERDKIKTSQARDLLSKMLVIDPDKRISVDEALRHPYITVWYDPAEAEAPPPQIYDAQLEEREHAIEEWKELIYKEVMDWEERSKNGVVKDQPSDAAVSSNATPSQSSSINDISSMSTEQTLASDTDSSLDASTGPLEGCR

[7] = MRT(0 to infinity) in Sprague-Dawley rat at 5 mg/kg, iv by HPLC-UV analysis; format: ADME, organism-based; settings: in vivo
[8] = Oral bioavailability in Sprague-Dawley rat at 75 mg/kg by HPLC-UV analysis; format: ADME, organism-based; settings: in vivo
[9] = Tmax in Sprague-Dawley rat at 75 mg/kg, po by HPLC-UV analysis; format: ADME, organism-based; settings: in vivo
[10] = Half-life in Sprague-Dawley rat at 75 mg/kg, po by HPLC-UV analysis; format: ADME, organism-based; settings: in vivo
[11] = biological target: c-Jun N-terminal kinase, JNK (Homo sapiens) (UniProt P45983+P53779+P45984); assay: Inhibition of JNK in human BEAS-2B cells assessed as inhibition of anisomycin-activated c-Jun phosphorylation preincubated for 1 hrs followed by anisomycin activation for 1 hrs by Western blot analysis; format: cell-based; settings: dose 2-50 µM, time 2.0 hrs
[12] = biological target: Mitogen-activated protein kinase 11 (Homo sapiens) (UniProt Q15759); assay: Inhibition of p38beta (unknown origin) at 1 uM preincubated for 10 mins followed by substrate addition and measured after 60 mins in the presence of ATP by ADP-Glo reagent based luminescence assay relative to control; settings: time 70.0 min
[13] = biological target: T2, Mitogen-activated protein kinase 10 (Homo sapiens, UniProt P53779); assay: Inhibition of N-terminal GST-tagged recombinant full length human JNK3 expressed in baculovirus infected Sf9 cells using IPTTPITTTYFFFKKK as substrate at 1 uM incubated for 60 mins in the presence of ATP by ADP-Glo reagent based luminescence assay relative to control
[14] = Cmax in Sprague-Dawley rat at 75 mg/kg, po by HPLC-UV analysis; format: ADME, organism-based; design: dose 75 mg/kg, route po; settings: in vivo
[15] = biological target: CDK6/cyclin D1 (Homo sapiens) (UniProt P24385+Q00534); assay: Inhibition of CDK6/Cyclin D1 (unknown origin) at 1 uM preincubated for 10 mins followed by substrate addition and measured after 60 mins in the presence of ATP by ADP-Glo reagent based luminescence assay; format: protein-complex assay; settings: time 70.0 min
[16] = MRT (0 to infinity) in Sprague-Dawley rat at 75 mg/kg, po by HPLC-UV analysis; format: ADME, organism-based; settings: in vivo
[17] = biological target: Mitogen-activated protein kinase 8 (Homo sapiens, UniProt P45983); assay: Inhibition of N-terminal GST-tagged recombinant full length human JNK1 expressed in baculovirus infected Sf9 insect cells using IPTTPITTTYFFFKKK as substrate at 0.1 uM incubated for 60 mins in the presence of ATP by ADP-Glo reagent based luminescence assay relative to control
[18] = biological target: T1, Mitogen-activated protein kinase 9; assay: Inhibition of N-terminal GST-tagged recombinant full length human JNK2 expressed in baculovirus infected Sf9 cells using IPTTPITTTYFFFKKK as substrate at 0.1 uM incubated for 60 mins in the presence of ATP by ADP-Glo reagent based luminescence assay relative to control
Target sequence in this assay (P45984 whole entry, looked up): as above

[19] = biological target: T1, Mitogen-activated protein kinase 9; assay: Inhibition of N-terminal GST-tagged recombinant full length human JNK2 expressed in baculovirus infected Sf9 cells using IPTTPITTTYFFFKKK as substrate incubated for 60 mins in the presence of ATP by ADP-Glo reagent based luminescence assay
Target sequence in this assay (P45984 whole entry): as the sequence (P45984 whole entry, looked up) above

[20] = biological target: CDK2/Cyclin A2 (Homo sapiens) (UniProt P24941+P20248); assay: Inhibition of CDK2/Cyclin A2 (unknown origin) at 1 uM preincubated for 10 mins followed by substrate addition and measured after 60 mins in the presence of ATP by ADP-Glo reagent based luminescence assay relative to control; format: protein-complex assay; settings: time 70.0 min
[21] = test system: Mus musculus; assay: Anti-fibrotic activity in bleomycin-induced C57BL/6 mouse model of pulmonary fibrosis assessed as alleviation of neutrophil infiltration in lungs at 25 to 75 mg/kg, po administered twice a day for 3 weeks by H&E staining based analysis; format: functional, organism-based; settings: dose 25-75 mg/kg
[22] = biological target: c-Jun N-terminal kinase (Mus musculus) (UniProt Q91Y86+Q9WTU6+Q61831); assay: Inhibition of JNK in mouse NIH-3T3 cells assessed as inhibition of anisomycin-activated c-Jun phosphorylation preincubated for 1 hrs followed by anisomycin activation for 1 hrs by Western blot analysis; format: cell-based; settings: NIH3T3, dose 2-50 µM, time 2.0 hrs
[23] = biological target: T2, Mitogen-activated protein kinase 10; assay: Inhibition of N-terminal GST-tagged recombinant full length human JNK3 expressed in baculovirus infected Sf9 cells using IPTTPITTTYFFFKKK as substrate incubated for 60 mins in the presence of ATP by ADP-Glo reagent based luminescence assay
[24] = AUC (0 to infinity) in Sprague-Dawley rat at 75 mg/kg, po by HPLC-UV analysis; format: ADME, organism-based; design: dose 75 mg/kg, route po; settings: in vivo
[25] = biological target: T2, Mitogen-activated protein kinase 10; assay: Inhibition of N-terminal GST-tagged recombinant full length human JNK3 expressed in baculovirus infected Sf9 cells using IPTTPITTTYFFFKKK as substrate at 0.1 uM incubated for 60 mins in the presence of ATP by ADP-Glo reagent based luminescence assay relative to control
[26] = test system: Mus musculus; assay: Anti-fibrotic activity in bleomycin-induced C57BL/6 mouse model of pulmonary fibrosis assessed as enhancement of lung respiratory function at 25 to 75 mg/kg, po administered twice a day for 3 weeks by spirometry analysis; format: functional, organism-based; settings: dose 25-75 mg/kg

T2 sequence (P53779 whole entry): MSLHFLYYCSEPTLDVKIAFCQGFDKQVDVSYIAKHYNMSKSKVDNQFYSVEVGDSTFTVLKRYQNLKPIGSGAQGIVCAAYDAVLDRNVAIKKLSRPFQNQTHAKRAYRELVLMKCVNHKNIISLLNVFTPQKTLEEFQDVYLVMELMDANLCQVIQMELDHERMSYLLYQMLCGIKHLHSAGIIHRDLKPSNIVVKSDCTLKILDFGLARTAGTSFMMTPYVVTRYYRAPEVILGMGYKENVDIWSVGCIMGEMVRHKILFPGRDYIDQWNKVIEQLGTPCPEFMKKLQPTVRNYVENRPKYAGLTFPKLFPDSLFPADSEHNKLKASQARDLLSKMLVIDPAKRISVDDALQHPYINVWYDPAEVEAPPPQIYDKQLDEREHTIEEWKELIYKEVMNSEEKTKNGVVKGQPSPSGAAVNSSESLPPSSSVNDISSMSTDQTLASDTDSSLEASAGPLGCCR
Mitogen-activated protein kinase 11 (Homo sapiens), sequence (Q15759 whole entry): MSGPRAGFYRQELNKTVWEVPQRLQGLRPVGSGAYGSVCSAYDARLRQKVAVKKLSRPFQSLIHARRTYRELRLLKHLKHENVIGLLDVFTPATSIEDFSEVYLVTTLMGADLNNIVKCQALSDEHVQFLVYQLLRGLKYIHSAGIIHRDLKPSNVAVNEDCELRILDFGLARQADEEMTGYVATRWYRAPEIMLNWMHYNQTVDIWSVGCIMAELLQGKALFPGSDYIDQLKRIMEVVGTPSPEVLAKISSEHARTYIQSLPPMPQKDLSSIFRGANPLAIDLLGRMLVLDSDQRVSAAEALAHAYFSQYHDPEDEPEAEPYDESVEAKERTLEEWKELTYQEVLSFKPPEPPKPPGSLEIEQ
Mitogen-activated protein kinase 8, sequence (P45983 whole entry): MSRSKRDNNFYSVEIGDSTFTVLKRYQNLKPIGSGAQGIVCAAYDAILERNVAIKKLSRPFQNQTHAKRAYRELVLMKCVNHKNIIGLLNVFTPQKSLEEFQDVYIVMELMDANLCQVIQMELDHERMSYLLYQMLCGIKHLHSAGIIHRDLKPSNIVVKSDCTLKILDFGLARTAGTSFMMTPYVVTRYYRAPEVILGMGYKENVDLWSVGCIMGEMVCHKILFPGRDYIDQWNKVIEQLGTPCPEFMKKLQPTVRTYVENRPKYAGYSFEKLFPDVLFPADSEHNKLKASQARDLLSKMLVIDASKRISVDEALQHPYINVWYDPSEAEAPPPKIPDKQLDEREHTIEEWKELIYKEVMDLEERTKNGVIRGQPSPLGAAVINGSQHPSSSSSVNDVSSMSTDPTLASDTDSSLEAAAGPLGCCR
c-Jun N-terminal kinase (Mus musculus), sequence (Q61831 whole entry, looked up): as the sequence (P53779 whole entry) above, with Q27H, Y32S, D267S, A345V, G412S, S432A counted along it
c-Jun N-terminal kinase (Mus musculus), sequence (Q91Y86 whole entry, looked up): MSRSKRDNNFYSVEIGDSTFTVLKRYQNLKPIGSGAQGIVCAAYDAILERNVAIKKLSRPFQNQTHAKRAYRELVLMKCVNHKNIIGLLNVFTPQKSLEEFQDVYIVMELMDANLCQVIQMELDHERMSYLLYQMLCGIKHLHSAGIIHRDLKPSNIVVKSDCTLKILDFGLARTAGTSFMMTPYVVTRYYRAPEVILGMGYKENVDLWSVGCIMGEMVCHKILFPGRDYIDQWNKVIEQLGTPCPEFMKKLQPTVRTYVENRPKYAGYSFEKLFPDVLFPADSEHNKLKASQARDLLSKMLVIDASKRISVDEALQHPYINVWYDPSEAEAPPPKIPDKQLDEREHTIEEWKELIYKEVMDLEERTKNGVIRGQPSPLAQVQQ
c-Jun N-terminal kinase (Mus musculus), sequence (Q9WTU6 whole entry, looked up): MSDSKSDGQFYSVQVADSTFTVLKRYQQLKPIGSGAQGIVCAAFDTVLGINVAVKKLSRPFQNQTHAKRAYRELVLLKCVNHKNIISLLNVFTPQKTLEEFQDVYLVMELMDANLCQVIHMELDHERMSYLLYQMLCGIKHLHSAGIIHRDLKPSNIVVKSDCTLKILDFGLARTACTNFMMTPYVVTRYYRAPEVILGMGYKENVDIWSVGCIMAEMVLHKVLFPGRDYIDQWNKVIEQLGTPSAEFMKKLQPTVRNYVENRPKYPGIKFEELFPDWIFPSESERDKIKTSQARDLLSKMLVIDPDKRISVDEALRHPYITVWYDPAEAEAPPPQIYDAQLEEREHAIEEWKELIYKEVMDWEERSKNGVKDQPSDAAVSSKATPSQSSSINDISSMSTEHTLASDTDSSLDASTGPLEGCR
Mitogen-activated protein kinase 7 (Homo sapiens), sequence (Q13164 2-816 limits assumed): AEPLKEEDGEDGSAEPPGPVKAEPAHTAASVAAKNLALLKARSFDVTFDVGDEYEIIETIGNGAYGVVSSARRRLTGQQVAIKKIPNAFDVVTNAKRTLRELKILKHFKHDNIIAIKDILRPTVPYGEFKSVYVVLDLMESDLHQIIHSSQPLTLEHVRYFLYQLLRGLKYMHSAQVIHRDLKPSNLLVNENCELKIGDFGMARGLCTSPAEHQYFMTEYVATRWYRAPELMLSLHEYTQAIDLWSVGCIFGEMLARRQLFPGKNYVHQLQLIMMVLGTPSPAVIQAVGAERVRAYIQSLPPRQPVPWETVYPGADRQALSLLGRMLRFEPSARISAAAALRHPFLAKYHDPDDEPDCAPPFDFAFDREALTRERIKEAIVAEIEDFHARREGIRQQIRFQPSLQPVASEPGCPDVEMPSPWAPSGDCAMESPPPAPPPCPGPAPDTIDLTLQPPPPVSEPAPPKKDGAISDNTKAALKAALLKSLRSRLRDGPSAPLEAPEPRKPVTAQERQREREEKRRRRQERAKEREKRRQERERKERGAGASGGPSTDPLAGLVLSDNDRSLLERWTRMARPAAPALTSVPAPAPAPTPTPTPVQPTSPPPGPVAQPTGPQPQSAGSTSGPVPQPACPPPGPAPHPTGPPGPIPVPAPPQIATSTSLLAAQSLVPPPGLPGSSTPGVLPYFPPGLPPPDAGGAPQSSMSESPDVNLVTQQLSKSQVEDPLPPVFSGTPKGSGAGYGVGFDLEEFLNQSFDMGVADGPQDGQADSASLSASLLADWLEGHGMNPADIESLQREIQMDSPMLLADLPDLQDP

Q: Which Vz [1] does the source give for `CC(C)(C)CNc1ncc(Br)c(Nc2ccccc2C(N)=O)n1` here?
A: The Vz was 230.54 L/kg.

Q: What about the Activity [2] of the same compound?
A: Its Activity is “Active”.

Q: And the Activity [3]?
A: The Activity was roughly 100%.

Q: And the Ratio IC50 [4]?
A: Its Ratio IC50 is 3.36.

Q: What about the inhibition [5] of the same compound?
A: The inhibition was 13.5%.

Q: What about the inhibition [6] of the same compound?
A: Its inhibition is 101%.

Q: And the MRT inf [7]?
A: The MRT inf was 2.85 h.

Q: What about the bioavailability [8] of the same compound?
A: The bioavailability was 15.3%.

Q: And the Tmax [9]?
A: Its Tmax is 1.38 h.

Q: What about the half-life [10] of the same compound?
A: Its half-life is 4.22 h.

Q: What about the inhibition [11] of the same compound?
A: Its inhibition is “Dose-Dependent Effect”.

Q: And the inhibition [12]?
A: The inhibition was 9.6%.

Q: And the inhibition [13]?
A: The inhibition was 99.6%.

Q: And the Cmax [14]?
A: The Cmax was 488 ng/mL.

Q: What about the inhibition [15] of the same compound?
A: The inhibition was 17%.

Q: And the MRT inf [16]?
A: The MRT inf was 5.45 h.

Q: And the inhibition [17]?
A: Its inhibition is 71.1%.

Q: What about the inhibition [18] of the same compound?
A: Its inhibition is 43%.

Q: And the IC50 [19]?
A: Its IC50 is 0.113 µM.

Q: What about the inhibition [20] of the same compound?
A: The inhibition was 36.1%.

Q: And the Activity [21]?
A: Its Activity is “Active”.

Q: What about the inhibition [22] of the same compound?
A: Its inhibition is “Dose-Dependent Effect”.

Q: What about the IC50 [23] of the same compound?
A: Its IC50 is 0.0332 µM.

Q: And the AUC(0-inf) [24]?
A: Its AUC(0-inf) is 1700 ng·h/mL.

Q: And the inhibition [25]?
A: Its inhibition is 78.5%.

Q: What about the Activity [26] of the same compound?
A: Its Activity is “Active”.
